Source: patent US8536196B2, “Substituted 1,3-dioxanes useful as PPAR modulators” (Evolva SA, priority 2007, dated 2013)

Key:
[1] = tested on: MEFs / 3T3-L1; assay: Adipocyte differentiation induction assay (Oil Red O staining); format: cell-based, mouse; set-up: key to Adip. (adipocyte differentiation): 0: similar results to DPD; −1: even less adipocyte differentiation; +1: more adipocyte differentiation (both relative to DPD); settings: for Adip. (adipocyte differentiation): relative to DPD (SN1)
Procedure: This example describes an assay for determining adipocyte differention. Compounds are tested to see whether they induce adipocyte differentiation and also to see whether they inhibit adipocyte differention.
MEFs were grown in AmnioMax basal medium (Gibco) supplemented with 7.5% Amniomax supplement C-100 (Gibco), 7.5% Fetal Bovine Serum (FBS), 2 mM Glutamine, 62.5 μg/ml penicillin and 100 μg/ml Streptomycin (growth medium). At confluence, MEFs were induced to differentiation in growth medium with the addition of 1 μM dexamethasone (Sigma) 0.5 mM isobutylmethylxanthine (Sigma), 5 μg/ml insulin (Sigma) and 10 μM test compound dissolved in DMSO or DMSO alone. Medium was subsequently renewed every 48 hrs with growth media supplemented with 5 μg/ml Insulin and ligand or DMSO.
Briefly, to test compounds as inducers of adipocyte differentiation, 3T3-L1 are grown to confluence in DMEM with 10% Calf serum (CS), typically in 24 well dishes. At 2 days post confluence (day 0), cells are induced to differentiate with DMEM supplemented with 10% fetal bovine serum (FBS), 1 μM dexamethasone and the test compound (01, 1 and 10 μM). BRL49653 (1.0 μM dissolved in 100% DMSO) is used as a positive control. After 48 h, the cells are re-fed with DMEM containing 10% FBS supplemented with the test compound or the positive control. From day 4, cells are grown in DMEM with 10% FBS and are changed every second day until day 8. At day 8, cells are stained with Oil Red O as described below.
Cells cultured as described above are used for Oil Red staining. Dishes are washed in PBS and cells were fixed in 3.7% paraformaldehyde for 1 h and stained with oil red O as described in (Hansen et al 1999). Oil red O solution stock solution is prepared by dissolving 0.5 g of Oil Red O (Sigma) in 100 mL of isopropanol. Oil re 0 working solution is prepared by diluting a stock solution with water (6:4) followed by filtration.
Table II summarizes results obtained with different analogs of DPD (SN1), “0” representing similar results to DPD, “−1” representing even less adipocyte differentiation, “+1” representing more adipocyte differentiation (both relative to DPD) and “−” meaning not assayed.

[2] = target: T1, Gal4-PPARgammaLBD (Homo sapiens, UniProt P37231); assay: PPARgamma transactivation assay (Gal4-PPARgammaLBD, UASx4-TK-luc reporter); format: cell-based; settings: for PPAR (PPARgamma activating activity): level of activity relative to 10 μM DPD (SN1)
T1 construct: expressed in transfected cells; host or cells: mouse embryonic fibroblasts (MEFs) or ME3 cells
T1 sequence (P37231 204-505): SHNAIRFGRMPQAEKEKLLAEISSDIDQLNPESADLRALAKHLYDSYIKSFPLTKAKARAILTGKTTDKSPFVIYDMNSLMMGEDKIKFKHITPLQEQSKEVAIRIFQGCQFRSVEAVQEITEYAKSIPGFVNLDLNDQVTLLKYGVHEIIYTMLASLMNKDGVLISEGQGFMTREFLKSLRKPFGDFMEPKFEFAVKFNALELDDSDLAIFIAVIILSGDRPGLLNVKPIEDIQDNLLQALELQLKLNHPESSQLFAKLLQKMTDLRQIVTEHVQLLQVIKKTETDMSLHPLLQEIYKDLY
Description: This is an example of a transactivation assay for determining PPAR gamma modulating activity.
The UASx-4-TK-luc reporter construct (where UAS refers to “upstream activator sequence”) contains four Gal4-responsive elements. The plasmid Gal4-PPARgammaLBD encodes a Gal4-DBD-PPARgamma-LBD fusion protein (i.e. the DNA-binding domain, DBD, of Gal4 fused to the ligand-binding domain, LBD, of PPARgamma) capable of transactivating the UASx-4-TK-luc reporter plasmid by binding to the UAS. The CMV-beta-galactosidase plasmid (where CMV is cytomegalovirus) is used for normalization of experimental values.
The cells were replated, typically in 24 well plates, so that at the time of transfection the cells are 50-70% confluent.
Briefly, per well in a 24 well plate, UASx4TKIuc (0.2 μg) Gal4-PPARgammaLBD (or pM-hPPARgamma-LBD; 0.1 μg) and CMV-beta-galactosidase (0.05 μg) in 30 μL DMEM (free of serum and antibiotics) is mixed with 30 μL DMEM (free of serum and antibiotics) containing 1 μL metafectenein. The mixture is incubated at room temperature for 20 min to allow formation of nucleic acid-lipid complexes and then approximately 60 μL is added to each well containing the 50-60% confluent cells. […] Cells were harvested after 12-24 hours and luciferase and beta-galactosidase activities were measured according to standard protocols.
“−” means that testing was not performed.

[3] = target: T2, mPPARalphaLBD (Mus musculus, UniProt P23204); assay: PPARalpha transactivation assay; format: cell-based
T2 construct: expressed in transfected cells
T2 sequence (P23204 239-466 limits assumed): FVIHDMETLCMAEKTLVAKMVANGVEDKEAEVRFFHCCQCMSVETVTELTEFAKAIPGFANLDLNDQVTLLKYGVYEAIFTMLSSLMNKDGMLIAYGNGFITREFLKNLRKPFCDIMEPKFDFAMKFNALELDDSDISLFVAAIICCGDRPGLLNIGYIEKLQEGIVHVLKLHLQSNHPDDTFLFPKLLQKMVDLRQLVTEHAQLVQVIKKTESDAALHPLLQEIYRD
Procedure: This example describes a transactivation assay for determining PPARalpha modulating activity.
DPD and other ligands are tested for their ability to transactivate PPARalpha essentially as described in Example 22.

[4] = target: T3, PPARgamma (h) (Homo sapiens, UniProt P37231); assay: Human recombinant (E. coli) PPARgamma (h) binding assay; settings: @ 10 μM
T3 construct: host or cells: E. coli
T3 sequence (P37231 1-505): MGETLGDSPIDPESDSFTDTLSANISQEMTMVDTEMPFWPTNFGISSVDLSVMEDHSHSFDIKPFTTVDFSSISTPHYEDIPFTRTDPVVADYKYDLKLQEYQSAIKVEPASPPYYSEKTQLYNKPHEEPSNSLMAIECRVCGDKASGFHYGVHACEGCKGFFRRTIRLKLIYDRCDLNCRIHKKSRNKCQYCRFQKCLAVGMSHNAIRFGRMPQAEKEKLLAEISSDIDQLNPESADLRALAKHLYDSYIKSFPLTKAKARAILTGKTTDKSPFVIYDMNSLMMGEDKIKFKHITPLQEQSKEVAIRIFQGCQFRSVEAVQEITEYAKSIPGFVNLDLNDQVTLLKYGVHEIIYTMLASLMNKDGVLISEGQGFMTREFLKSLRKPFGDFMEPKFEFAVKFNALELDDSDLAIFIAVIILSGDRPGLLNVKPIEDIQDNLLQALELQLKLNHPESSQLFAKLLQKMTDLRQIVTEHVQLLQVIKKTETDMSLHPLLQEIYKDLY
Procedure: The results are expressed as a percent of control specific binding ((measured specific binding/control specific binding)×100) obtained in the presence of the test compounds. The IC50 values (concentration causing a half-maximal inhibition of control specific binding) and Hill coefficients (nH) were determined by non-linear regression analysis of the competition curves generated with mean replicate values using Hill equation curve fitting (Y=D+[(A D)/(1+(C/C50)nH)], where Y=specific binding, D=minimum specific binding, A=maximum specific binding, C=compound concentration, C50=IC50, and nH=slope factor). This analysis was performed using a software developed at Cerep (Hill software) and validated by comparison with data generated by the commercial software SigmaPlot® 4.0 for Windows® (© 1997 by SPSS Inc.). The inhibition constants (Ki) were calculated using the Cheng Prusoff equation (Ki=IC50/(1+(L/KD)), where L=concentration of radioligand in the assay, and KD=affinity of the radioligand for the receptor).

[5] = tested on: KKA^y mice; assay: Glucose lowering effect in KKAy mouse model; format: in vivo; settings: 5 mg/kg BID oral gavage 14 days, Day 14, average ± S.E.M., 5 mg/kg
Procedure: 52 male KKA^y mice were obtained commercially (e.g., from Clea Japan) at an age of 6 weeks and put on a high fat diet upon arrival. Individual mice were housed in IVC Type II cages during both the acclimatization and the experimental phase. Both food (high fat diet) and water were supplied ad libitum.
Mice were randomized into treatment groups according to their 4-h fasting blood glucose.
4 hours after the last administration, non-fasting conditions.
Blood was collected into heparin containing glass capillaries which were subsequently centrifuged in a “Haematokrit 24” centrifuge (Hettich) at 15′200×g for 10 min at room temperature to obtain the hematocrit value.
The following serum parameters were determined on a COBAS INTEGRA 800 auto analyzer (Roche Diagnostics, Switzerland) using the reagents and protocols provided by the supplier.
All measurements were made on Day 14 of administration, except for the food intake and body weight measurements that were made on Day 12.

Compound | Adip. (adipocyte differentiation) [1] | PPAR (PPARgamma activating activity) [2] | other results
O=C(O)CC/C=C\C[C@@H]1COC(c2coc3ccc(Cl)cc3c2=O)O[C@@H]1c1ccccc1O (stereo partly shown) [compound 13] | −1 |  | adipocyte differentiation (summary in words) [1]: low or no adipocyte differentiation; PPARgamma activity (summary in words) [2]: higher potency
COc1ccccc1[C@H]1OC(c2ccccc2Cl)OC[C@H]1C/C=C\CCC(=O)O (stereo partly shown) [compound 27] |  | Inactive | 
O=C(O)CC/C=C\C[C@@H]1COC2(CCNCC2)O[C@@H]1c1ccccc1O [compound 8] | −1 | Boc de- rivative Inactive | 
CC(C)(Sc1ccc(CCN(CCCCC2CCCCC2)C(=O)NC2CCCCC2)cc1)C(=O)O [GW7647, reference compound] |  |  | increase in PPARalpha transactivation [3]: over 2 fold
COc1ccccc1[C@H]1O[C@@H](c2c(Cl)cccc2Cl)OC[C@H]1C/C=C\CCC(=O)O [compound 28] |  | Inactive | 
COc1ccccc1[C@H]1OC(C)(C)OC[C@H]1C/C=C\CCCCC(=O)O [compound 37] | 0 | Inactive | 
COc1ccc(C(=O)NCc2cccnc2)cc1C(=O)NCc1cccnc1 [Picotamide, reference compound] |  |  | PPARgamma binding @ 10 μM [4]: no binding
CC1(C)OC[C@@H](C/C=C\CCCCC(=O)O)[C@@H](c2ccccc2O)O1 [compound 36] |  | Inactive | 
O=C(O)CC/C=C\C[C@@H]1COC(c2ccccc2-c2ccccc2)O[C@@H]1c1ccccc1O (stereo partly shown) [compound 10] | 0 | Antagonist | PPARgamma activity (summary in words) [2]: PPARgamma antagonist
COc1ccc(Oc2ccccc2C2OC[C@@H](C/C=C\CCC(=O)O)[C@@H](c3ccccc3O)O2)cc1 (stereo partly shown) [compound 7] | 0 |  | adipocyte differentiation (summary in words) [1]: low or no adipocyte differentiation; PPARgamma activity (summary in words) [2]: higher potency
CN(CCOc1ccc(CC2SC(=O)NC2=O)cc1)c1ccccn1 (stereo not shown) [Rosiglitazone, rosiglitazone, reference compound] |  |  | Heart weight [5]: increased
